Legend:
rat H1 receptor = target: T1, rat H1 receptor (Rattus norvegicus, UniProt P31390); assay: Rat H1 receptor affinity test (Test Example 1); format: binding; details: rat cerebrum membrane preparation, [3H]-pyrilamine 2 nmol/L
T1 construct: An H1 receptor membrane preparation was prepared from rat cerebrum; from tissue; host or cells: rat cerebrum
Procedure: An H1 receptor membrane preparation was prepared from rat cerebrum. […] To the resulting each sample, 50 μL of 8 nmol/L [^3H]-pyrilamine (manufactured by PerkinElmer) (final concentration: 2 nmol/L) was added and mixed. After the mixture was incubated at a room temperature for 30 minutes, the reaction solution was collected on a glass filter by a cell harvester (manufactured by Molecular Devices), and then the filter was washed with the incubation buffer. The glass filter was cut off and transferred in a vial. To the vial was added 5 mL of a scintillator (manufactured by National Diagnostics), and the mixture was shaken for not less than one hour. Thereafter, the radioactive concentration was measured by a liquid scintillation counter.

human H1 receptor = target: T2, human H1 receptor (Homo sapiens, UniProt P35367); assay: Human H1 receptor affinity test (Test Example 2); format: binding; details: CHO cell membrane preparation expressing human H1 receptor, [3H]-pyrilamine 2 nmol/L
T2 construct: purchased; host or cells: CHO cells
T2 sequence (P35367 whole entry): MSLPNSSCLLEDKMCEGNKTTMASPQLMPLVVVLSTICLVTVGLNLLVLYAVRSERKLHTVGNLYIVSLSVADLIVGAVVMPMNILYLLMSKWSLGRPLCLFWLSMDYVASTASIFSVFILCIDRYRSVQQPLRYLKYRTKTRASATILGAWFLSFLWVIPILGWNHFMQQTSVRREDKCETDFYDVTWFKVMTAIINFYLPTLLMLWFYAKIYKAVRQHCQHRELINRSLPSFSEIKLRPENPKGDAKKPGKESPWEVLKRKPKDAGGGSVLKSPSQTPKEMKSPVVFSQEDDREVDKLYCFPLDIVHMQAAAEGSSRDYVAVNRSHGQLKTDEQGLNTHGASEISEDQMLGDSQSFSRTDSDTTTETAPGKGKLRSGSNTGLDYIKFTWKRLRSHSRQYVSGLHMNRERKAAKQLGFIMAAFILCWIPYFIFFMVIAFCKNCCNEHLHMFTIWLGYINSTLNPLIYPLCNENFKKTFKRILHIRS
Procedure: Chinese hamster ovarian cells (CHO cells) having human H1 receptor forcibly express were purchased and used as an H1 receptor membrane preparation. […] To the resulting each sample, 50 μL of 8 nmol/L [^3H]-pyrilamine (final concentration: 2 nmol/L) was added and mixed. […] The glass filter was cut off and transferred in a vial. To the vial was added 5 mL of a scintillator (manufactured by National Diagnostics), and the mixture was shaken for not less than one hour. Thereafter, the radioactive concentration was measured by a liquid scintillation counter.

[1] = test system: histamine-induced skin reaction in mouse; assay: Skin reaction test in mouse (Test Example 4); format: in vivo; details: oral, histamine 3 μg/50 μL/site intradermal, pigment area, read-out: Skin reaction test in mouse ID50
Procedure: (§1) Each mouse was sheared the day before test and fasted overnight. A low, middle or high dose of each test compound suspended in a 0.5% (W/V) CMC-Na aqueous solution was orally administered to the mouse. One hour after the administration, a 1% Evans Blue physiological saline solution (Tokyo Chemical Industry Co., Ltd.) was administered into the caudal vein in a dose of 10 mL/kg, and immediately histamine 3 μg/50 μL/site was intradermally administered into the dorsum. Thirty minutes after the administration, the mouse was anesthetized with diethyl ether and then euthanized by cervical dislocation. The skin was ablated, and the major axis and minor axis of a spot of the pigment exuded into the skin were measured to calculate the area of the pigment.

[2] = test system: histamine-induced skin reaction in rat; assay: Histamine-induced skin reaction test in rat (Test Example 3); format: in vivo; details: oral, histamine 10 μg/0.1 mL/site intradermal, pigment area, read-out: Skin reaction test in rat ID50
Procedure: as §1, with “Each mouse was sheared the day before test and fasted overnight. A low, middle or high dose of each test compound suspended in a 0.5% (W/V) CMC-Na aqueous solution was orally administered to the mouse.” left out, “5” for “10”, “10 μg/0.1 mL/site (manufactured by Wako Pure Chemical Industries, Ltd.)” for “3 μg/50 μL/site”, “rat” for “mouse”

[3] = test system: mouse IgE-dependent ear edema model; assay: Inhibitory effects on mouse IgE-dependent ear edema model (Test Example 8); format: in vivo; details: oral twice a day, dose a multiple of mouse ID50 (Dose column of Table E); for Inhibitory effects in each allergic reaction phase: Immediate phase: mouse ear swelling 1 hour after antigen; for Inhibitory effects in each allergic reaction phase: Late phase: mouse ear swelling 24 hours after antigen; for Inhibitory effects in each allergic reaction phase: Very late phase: mouse ear swelling 7 days after antigen;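 as to all read-outs here: 5 or 10 times the mouse skin-reaction ID50 per dose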
Procedure: To each mouse, 0.25 mL of an anti-DNP-IgE antibody (manufactured by SIGMA-ALDRICH) was intravenously administered for passive sensitization. On the day following the administration, an antigen (DNFB solution; manufactured by Wako Pure Chemical Industries, Ltd.) was applied on the right ear to induce dermatitis (ear swelling). One hour, 24 hours and 7 days after the application of the antigen, the thickness of the right ear was measured by a thickness measuring apparatus (dial thickness gauge). […] The thickness of the right ear before the sensitization was measured beforehand; the inhibition rates of the swelling in immediate phase, late phase, and very late phase were calculated.

T1 sequence (P31390 whole entry): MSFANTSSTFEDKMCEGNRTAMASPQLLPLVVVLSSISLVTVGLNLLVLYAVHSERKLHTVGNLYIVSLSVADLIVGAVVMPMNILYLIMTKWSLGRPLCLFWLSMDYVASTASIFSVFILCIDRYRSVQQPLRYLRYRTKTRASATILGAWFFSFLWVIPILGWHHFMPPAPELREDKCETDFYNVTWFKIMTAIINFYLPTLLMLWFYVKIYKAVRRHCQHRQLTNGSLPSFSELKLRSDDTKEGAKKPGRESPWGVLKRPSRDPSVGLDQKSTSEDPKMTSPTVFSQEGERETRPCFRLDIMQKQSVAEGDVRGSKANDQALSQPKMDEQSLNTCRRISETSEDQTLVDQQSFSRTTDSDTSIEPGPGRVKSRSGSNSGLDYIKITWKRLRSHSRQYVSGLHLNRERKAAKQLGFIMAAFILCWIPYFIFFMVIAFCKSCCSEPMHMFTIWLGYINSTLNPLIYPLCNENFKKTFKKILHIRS

Structure (SMILES)	IC50 (rat H1 receptor) [nM]	IC50 (human H1 receptor) [nM]	also measured
O=C(O)c1csc(CN2CCC(OC(c3ccccc3)c3ccccc3)CC2)n1 [Example 4]	39	–	–
O=C(O)c1cc(CN2CCC(OC(c3ccccc3)c3ccc(F)cc3)CC2)cs1 (stereo not shown) [Example 89]	–	7.5	–
O=C(O)c1ccc(CN2CCC(OC(c3ccccc3)c3ccccc3)CC2)[nH]1 [Example 35, 5-(4-Benzhydryloxypiperidin-1-ylmethyl)-1H-pyrrole-2-carboxylic acid]	61	15	–
O=C(O)c1cnn(CN2CCC(OC(c3ccccc3)c3ccccc3)CC2)c1 [Example 84]	–	17	–
O=C(O)c1ccnc(CN2CCC(OC(c3ccccc3)c3ccc(F)c(F)c3)CC2)c1 (stereo not shown) [Example 51]	–	4.9	ED50 [1]: 0.07 mg/kg
O=C(O)c1cccc(CN2CCC(=C3c4ccccc4CCc4ccccc43)CC2)n1 [Example 75]	67	23	ED50 [2]: 1.2 mg/kg
O=C(O)c1ccnc(CN2CCC(OC(c3ccccc3)c3cccc(Cl)c3)CC2)c1 (stereo not shown) [Example 117]	–	24	–
O=C(O)c1cccc(CN2CCC(OC(c3ccccc3)c3ccccc3F)CC2)n1 (stereo not shown) [Example 20]	69	29	–
O=C(O)c1cc(CN2CCC(OC(c3ccccc3)c3ccccc3)CC2)ccn1 [Example 29]	63	–	–
O=C(O)c1ccnc(CN2CCC(OC(c3ccc(F)cc3)c3ccccc3F)CC2)c1 (stereo not shown) [Example 87]	–	21	ED50 [1]: 0.06 mg/kg; Inhibitory effects in each allergic reaction phase: Immediate phase [3]: ++ (++ Inhibitory rate 45 to 20%); Inhibitory effects in each allergic reaction phase: Late phase [3]: ++ (++ Inhibitory rate 45 to 20%); Inhibitory effects in each allergic reaction phase: Very late phase [3]: + (+ Inhibitory rate 19 to 10%)
O=C(O)c1ccnc(CN2CCC(=C3c4ccccc4C=Cc4ccccc43)CC2)c1 [Example 72]	–	8.9	ED50 [1]: 0.06 mg/kg
O=C(O)c1ccnc(CN2CCC(OC(c3ccc(F)cc3)c3cccc(F)c3)CC2)c1 (stereo not shown) [Example 52]	–	6.7	ED50 [1]: 0.1 mg/kg
O=C(O)c1ccnc(CN2CCC(OC(c3ccc(F)cc3)c3ccc(F)cc3)CC2)c1 [Example 124]	–	8.4	–
O=C(O)c1nc(CN2CCC(OC(c3ccccc3)c3ccc(Cl)cc3)CC2)cs1 (stereo not shown) [Example 44]	20	–	–
Cc1ccc(C(OC2CCN(Cc3ccc(C(=O)O)o3)CC2)c2ccccc2)cc1 (stereo not shown) [Example 46]	68	–	–
O=C(O)c1cccc(CN2CCN(C(c3ccccc3)c3ccc(Cl)cc3)CC2)n1 (stereo not shown) [Example 23]	36	30	ED50 [2]: 1.8 mg/kg
O=C(O)c1cccc(CN2CCC(OC(c3ccccc3)c3cccc(Cl)c3)CC2)n1 (stereo not shown) [Example 116]	–	17	–
O=C(O)c1cccc(CN2CC[C@H](OC(c3ccccc3)c3ccccc3)C2)n1 [Example 129, 6-((S)-3-Benzhydryloxypyrrolidin-1-ylmethyl)pyridine-2-carboxylic acid]	–	5.1	ED50 [1]: 0.04 mg/kg; Inhibitory effects in each allergic reaction phase: Immediate phase [3]: ++ (++ Inhibitory rate 45 to 20%); Inhibitory effects in each allergic reaction phase: Late phase [3]: ++ (++ Inhibitory rate 45 to 20%); Inhibitory effects in each allergic reaction phase: Very late phase [3]: ++ (++ Inhibitory rate 45 to 20%)
O=C(O)COCCN1CCN(C(c2ccccc2)c2ccc(Cl)cc2)CC1 (stereo not shown) [Cetirizine]	88	–	–
COc1ccc(CN2CCC(OC(c3ccccc3)c3ccc(F)c(F)c3)CC2)nc1C(=O)O (stereo not shown) [Example 53]	–	14	–
O=C(O)c1coc(CN2CCC(OC(c3ccccc3)c3ccccc3)CC2)n1 [Example 3]	55	–	–
O=C(O)c1cncc(CN2CCC(OC(c3ccccc3)c3ccc(F)cc3)CC2)c1 (stereo not shown) [Example 88]	–	21	–
O=C(O)c1cccc(CN2CCC(OC(c3ccc(F)cc3)c3ccccc3F)CC2)n1 (stereo not shown) [Example 86]	–	16	–
O=C(O)c1ccnc(CN2CCC(OC(c3ccccc3)c3ccccc3)CC2)c1 [Example 27]	31	8.9	ED50 [1]: 0.03 mg/kg; Inhibitory effects in each allergic reaction phase: Immediate phase [3]: ++ (++ Inhibitory rate 45 to 20%); Inhibitory effects in each allergic reaction phase: Late phase [3]: ++ (++ Inhibitory rate 45 to 20%); Inhibitory effects in each allergic reaction phase: Very late phase [3]: ++ (++ Inhibitory rate 45 to 20%)
